How the values were obtained:
Assay type in all cases: functional
[1] = test system: SW-620; assay: Cytotoxicity against human SW620 cells
[2] = test system: HOP-62; assay: Cytotoxicity against human HOP62 cells
[3] = Cytotoxicity against human HS578T cells; settings: Hs-578T
[4] = test system: SNB-75; assay: Cytotoxicity against human SNB75 cells
[5] = test system: OVCAR-8; assay: Cytotoxicity against human OVCAR8 cells
[6] = test system: SK-MEL-2; assay: Cytotoxicity against human SK-MEL-2 cells
[7] = test system: SK-OV-3; assay: Cytotoxicity against human SK-OV-3 cells
[8] = test system: HOP-92; assay: Cytotoxicity against human HOP92 cells
[9] = test system: HCC 2998; assay: Cytotoxicity against human HCC2998 cells
[10] = test system: 786-0; assay: Cytotoxicity against human 786-0 cells
[11] = test system: NCI/ADR-RES; assay: Cytotoxicity against human NCI/ADR-RES cells
[12] = test system: SK-MEL-5; assay: Cytotoxicity against human SK-MEL-5 cells
[13] = test system: SK-MEL-28; assay: Cytotoxicity against human SK-MEL-28 cells
[14] = test system: UACC-257; assay: Cytotoxicity against human UACC257 cells
[15] = test system: OVCAR-3; assay: Cytotoxicity against human OVCAR-3 cells
[16] = test system: SNB-19; assay: Cytotoxicity against human SNB19 cells
[17] = test system: BT-549; assay: Cytotoxicity against human BT549 cells
[18] = test system: NCI-H322M; assay: Cytotoxicity against human NCI-H322M cells
[19] = test system: UACC-62; assay: Cytotoxicity against human UACC62 cells
[20] = test system: A549; assay: Cytotoxicity against human A549 cells
[21] = test system: NCI-H226; assay: Cytotoxicity against human NCI-H226 cells
[22] = test system: UO-31; assay: Cytotoxicity against human UO31 cells
[23] = test system: MOLT-4; assay: Cytotoxicity against human MOLT4 cells
[24] = test system: SN12C; assay: Cytotoxicity against human SN12C cells
[25] = test system: MDA-MB-231; assay: Cytotoxicity against human MDA-MB-231 cells
[26] = test system: RPMI-8226; assay: Cytotoxicity against human RPMI8226 cells
[27] = test system: IGROV-1; assay: Cytotoxicity against human IGROV1 cells
[28] = test system: RXF 393; assay: Cytotoxicity against human RXF393 cells
[29] = test system: MDA-MB-435; assay: Cytotoxicity against human MDA-MB-435 cells
[30] = test system: LOX IMVI; assay: Cytotoxicity against human LOX IMVI cells
[31] = test system: HCT-116; assay: Cytotoxicity against human HCT116 cells
[32] = test system: HCT-15; assay: Cytotoxicity against human HCT15 cells
[33] = test system: KM12; assay: Cytotoxicity against human KM12 cells
[34] = test system: TK-10; assay: Cytotoxicity against human TK10 cells
[35] = test system: U-251; assay: Cytotoxicity against human U251cells
[36] = test system: HT-29; assay: Cytotoxicity against human HT29 cells
[37] = test system: OVCAR-5; assay: Cytotoxicity against human OVCAR5 cells
[38] = test system: M14; assay: Cytotoxicity against human M14 cells
[39] = test system: SF-295; assay: Cytotoxicity against human SF295 cells
[40] = test system: NCI-H460; assay: Cytotoxicity against human NCI-H460 cells
[41] = test system: EKVX; assay: Cytotoxicity against human EKVX cells
[42] = test system: SF-539; assay: Cytotoxicity against human SF539 cells
[43] = test system: NCI-H23; assay: Cytotoxicity against human NCI-H23 cells
[44] = test system: PC-3; assay: Cytotoxicity against human PC3 cells
[45] = test system: SF-268; assay: Cytotoxicity against human SF268 cells
[46] = read-out: Log LC50 (the source's name) (converted)

## CC(=O)O[C@H]1C[C@H]2[C@@](C)(CC[C@H]3C(C)(C)CCC[C@@]32CO)[C@@H]2CC=C(C(C)=O)[C@H](C=O)[C@@]12C
[1]
  GI50: 162 nM
[1]; [46]
  CC50: 676 nM
[1]; read-out: Log TGI (converted)
  TGI: 331 nM
[2]
  GI50: 295 nM
[2]; [46]
  CC50: 2450 nM
[2]; read-out: Log TGI (converted)
  TGI: 724 nM
[3]
  GI50: 240 nM
  LC50: 3240 nM
[3]; read-out: Log TGI (converted)
  TGI: 646 nM
[4]
  GI50: 355 nM
[4]; [46]
  CC50: 3470 nM
[4]; read-out: Log TGI (converted)
  TGI: 1120 nM
[5]
  GI50: 263 nM
[5]; read-out: Log TGI (converted)
  TGI: 692 nM
[6]
  GI50: 1620 nM
[6]; [46]
  CC50: 8130 nM
[6]; read-out: Log TGI (converted)
  TGI: 3630 nM
[7]
  GI50: 1200 nM
[7]; [46]
  CC50: 6310 nM
[7]; read-out: Log TGI (converted)
  TGI: 2750 nM
[8]
  GI50: 1350 nM
[8]; [46]
  CC50: 5500 nM
[8]; read-out: Log TGI (converted)
  TGI: 2750 nM
[9]
  GI50: 1000 nM
[9]; [46]
  CC50: 4790 nM
[9]; read-out: Log TGI (converted)
  TGI: 2190 nM
[10]
  GI50: 224 nM
[10]; [46]
  CC50: 1170 nM
[10]; read-out: Log TGI (converted)
  TGI: 490 nM
[11]
  GI50: 1070 nM
  LC50: 6170 nM
[11]; read-out: Log TGI (converted)
  TGI: 2570 nM
[12]
  GI50: 501 nM
[12]; [46]
  CC50: 4070 nM
[12]; read-out: Log TGI (converted)
  TGI: 1700 nM
[13]
  GI50: 251 nM
[13]; [46]
  CC50: 2290 nM
[13]; read-out: Log TGI (converted)
  TGI: 631 nM
[14]
  GI50: 1950 nM
[14]; [46]
  CC50: 9550 nM
[14]; read-out: Log TGI (converted)
  TGI: 4370 nM
[15]
  GI50: 204 nM
[15]; [46]
  CC50: 676 nM
[15]; read-out: Log TGI (converted)
  TGI: 372 nM
[16]
  GI50: 1120 nM
[16]; [46]
  CC50: 5750 nM
[16]; read-out: Log TGI (converted)
  TGI: 2570 nM
[17]
  GI50: 214 nM
  LC50: 977 nM
[17]; read-out: Log TGI (converted)
  TGI: 457 nM
[18]
  GI50: 1910 nM
[18]; [46]
  CC50: 7590 nM
[18]; read-out: Log TGI (converted)
  TGI: 3800 nM
[19]
  GI50: 1480 nM
[19]; [46]
  CC50: 5370 nM
[19]; read-out: Log TGI (converted)
  TGI: 2820 nM
[20]
  GI50: 562 nM
[20]; [46]
  CC50: 4680 nM
[20]; read-out: Log TGI (converted)
  TGI: 1860 nM
[21]
  GI50: 1380 nM
[21]; [46]
  CC50: > 100000 nM
[21]; read-out: Log TGI (converted)
  TGI: 2820 nM
[22]
  GI50: 417 nM
  LC50: 3980 nM
[22]; read-out: Log TGI (converted)
  TGI: 1450 nM
[23]
  GI50: 195 nM
[23]; [46]
  CC50: 1950 nM
[23]; read-out: Log TGI (converted)
  TGI: 513 nM
[24]
  GI50: 1200 nM
  LC50: 5010 nM
[24]; read-out: Log TGI (converted)
  TGI: 2450 nM
[25]
  GI50: 891 nM
  LC50: 4570 nM
[25]; read-out: Log TGI (converted)
  TGI: 2090 nM
[26]
  GI50: 427 nM
[26]; [46]
  CC50: 8130 nM
[26]; read-out: Log TGI (converted)
  TGI: 1820 nM
[27]
  GI50: 1580 nM
[27]; [46]
  CC50: 7080 nM
[27]; read-out: Log TGI (converted)
  TGI: 3310 nM
[28]
  GI50: 295 nM
  LC50: 3630 nM
[28]; read-out: Log TGI (converted)
  TGI: 1120 nM
[29]
  GI50: 525 nM
  LC50: 4270 nM
[29]; read-out: Log TGI (converted)
  TGI: 1740 nM
[30]
  GI50: 234 nM
[30]; [46]
  CC50: 1780 nM
[30]; read-out: Log TGI (converted)
  TGI: 550 nM
[31]
  GI50: 186 nM
[31]; [46]
  CC50: 676 nM
[31]; read-out: Log TGI (converted)
  TGI: 355 nM
[32]
  GI50: 224 nM
[32]; [46]
  CC50: 1230 nM
[32]; read-out: Log TGI (converted)
  TGI: 490 nM
[33]
  GI50: 501 nM
[33]; [46]
  CC50: 4570 nM
[33]; read-out: Log TGI (converted)
  TGI: 1700 nM
[34]
  GI50: 302 nM
  LC50: 3390 nM
[34]; read-out: Log TGI (converted)
  TGI: 891 nM
[35]
  GI50: 347 nM
[35]; [46]
  CC50: 3470 nM
[35]; read-out: Log TGI (converted)
  TGI: 1200 nM
[36]
  GI50: 324 nM
[36]; [46]
  CC50: 4270 nM
[36]; read-out: Log TGI (converted)
  TGI: 1150 nM
[37]
  GI50: 832 nM
[37]; [46]
  CC50: 4680 nM
[37]; read-out: Log TGI (converted)
  TGI: 2090 nM
[38]
  GI50: 1000 nM
[38]; [46]
  CC50: 4900 nM
[38]; read-out: Log TGI (converted)
  TGI: 2240 nM
[39]
  GI50: 479 nM
[39]; [46]
  CC50: 4270 nM
[39]; read-out: Log TGI (converted)
  TGI: 1740 nM
[40]
  GI50: 759 nM
[40]; [46]
  CC50: 6030 nM
[40]; read-out: Log TGI (converted)
  TGI: 2290 nM
[41]
  GI50: 832 nM
[41]; [46]
  CC50: 4900 nM
[41]; read-out: Log TGI (converted)
  TGI: 2140 nM
[42]
  GI50: 195 nM
[42]; [46]
  CC50: 794 nM
[42]; read-out: Log TGI (converted)
  TGI: 389 nM
[43]
  GI50: 1410 nM
[43]; [46]
  CC50: 5500 nM
[43]; read-out: Log TGI (converted)
  TGI: 2750 nM
[44]
  GI50: 380 nM
  LC50: 3800 nM
[44]; read-out: Log TGI (converted)
  TGI: 1350 nM
[45]
  GI50: 447 nM
[45]; [46]
  CC50: 6170 nM
[45]; read-out: Log TGI (converted)
  TGI: 1860 nM
